Measured values as given in patent EP4818171A1 (Apeiron Therapeutics (Hong Kong) Ltd., priority 2024, dated 2025).
Like-named read-outs stand apart in the source and are kept apart here.

Assays:
HCT-116 wild-type cells = test: Inhibitory activity on proliferation of HCT-116 wild-type cells (Cell-Titer Glo); format: cell-based; settings: 8 d incubation
Description: Cell culture: HCT-116 wild-type cells were cultured with a RPMI-1640 medium containing 10% fetal bovine serum+1% penicillin-streptomycin at 37°C in 5% carbon dioxide. Only cells in the logarithmic growth phase could be used for the test.
Test of cell proliferation activity: Cell-Titer Glo kit was used to test the proliferation inhibitory activity of the compound on HCT-116 wild-type cells. The cell concentration was adjusted, rendering that cells were inoculated into a 384-well plate at 40 µL per well and incubated overnight at 37°C and 5% carbon dioxide. 40 nL of the compound was added to each well to reach a final concentration of 0-10,000 nM (starting concentration 10,000 nM, 2-fold dilution, 10 points), and the cell plate with 0.1% DMSO content was incubated at 37°C and 5% carbon dioxide for 8 d. 40 µL of Cell-Titer Glo reagent was added to test cell viability.

[1] = tested on: LU99 MTAP overexpressing cells; test: Inhibitory activity on proliferation of LU99 MTAP overexpressing cells (Cell-Titer Glo); format: cell-based; settings: 6 d incubation
Description: Materials and cells: LU99 MTAP overexpressing cell line was purchased from Kyinno Biotechnology (China); cell culture medium and fetal bovine serum were purchased from Thermo Fisher Scientific (USA); 384-well plates were purchased from PerkinElmer (USA); Cell-Titer Glo kits were purchased from Promega (USA).
Cell culture: LU99 MTAP overexpressing cells were cultured with medium containing 10% fetal bovine serum at 37°C in 5% carbon dioxide. Only cells in the logarithmic growth phase could be used for the test.
Test of inhibitory activity on cell proliferation: The Cell-Titer Glo kit was used to test the proliferation inhibitory activity of the compounds on LU99 MTAP overexpressing cells. The cell concentration was adjusted, rendering that cells were inoculated into a 384-well plate at 40 µL per well and incubated overnight at 37°C and 5% carbon dioxide. 40 nL of the compound was added to each well to reach a final concentration of 0-10,000 nM (starting concentration 10,000 nM, 2.5-fold dilution, 10 points), and the cell plate with 0.2% DMSO content was incubated at 37°C and 5% carbon dioxide for 6 d. 40 µL of Cell-Titer Glo reagent was added to test cell viability.

[2] = tested on: HCT-116 MTAP(-/-)deleted cells; settings: 192 h
Description: (§1) Only cells in the logarithmic growth phase could be used for the test. […] The cell concentration was adjusted, rendering that cells were inoculated into a 384-well plate at 40 µL per well and incubated overnight at 37°C and 5% carbon dioxide. 40 nL of the compound was added to each well to reach a final concentration of 0-10,000 nM (starting concentration 10,000 nM, 3-fold dilution, 10 points), and the cell plate with 0.1% DMSO content was incubated at 37°C and 5% carbon dioxide for 8 d. 40 µL of Cell-Titer Glo reagent was added to test cell viability.

[3] = tested on: LU99 MTAP(-/-)deleted cells; settings: 144 h
Description: (§2) Materials and cells: LU99 MTAP deleted cell line was purchased from Kyinno Biotechnology (China); cell culture medium and fetal bovine serum were purchased from Thermo Fisher Scientific (USA); 384-well plates were purchased from PerkinElmer (USA); Cell-Titer Glo kits were purchased from Promega (USA). Cell culture: LU99 MTAP(-/-)deleted cells were cultured with medium containing 10% fetal bovine serum at 37°C in 5% carbon dioxide. Only cells in the logarithmic growth phase could be used for the test.
(§3) Test of inhibitory activity on cell proliferation: The Cell-Titer Glo kit was used to test the proliferation inhibitory activity of the compounds on LU99 MTAP(-/-)deleted cells. The cell concentration was adjusted, rendering that cells were inoculated into a 384-well plate at 40 µL per well and incubated overnight at 37°C and 5% carbon dioxide. […] 40 µL of Cell-Titer Glo reagent was added to test cell viability.

[4] = tested on: LU99 MTAP(-/-)deleted cells; test: Inhibitory activity on proliferation of LU99 MTAP(-/-)deleted cells (Cell-Titer Glo); settings: Homo sapiens, Lu-99, 144 h, read-out: IC50 (nM) Lu99 MTAP(-/-)Deleted, LU99 MTAP(-/-)deleted cells, 6 d incubation, Cell-Titer Glo
Description: as §2, §3

[5] = tested on: HCT-116 MTAP(-/-)deleted cells; test: Inhibitory activity on proliferation of HCT-116 MTAP(-/-)deleted cells (Cell-Titer Glo); settings: Homo sapiens, HCT-116, 192 h, read-out: IC50 (nM) HCT-116 MTAP(-/-)deleted
Description: as §1

[6] = Pharmacokinetic test in mice; format: in vivo; settings: male, mouse, plasma, ICR mice; for bioavailability: read-out: Bioavailability (F)
Description: The test compounds are compounds according to examples of the present disclosure
ICR male mice N=3/group; original source: Zhejiang Vital River Laboratory Animal Technology Co., Ltd.
Single oral administration (PO) to ICR mice: The compound was weighed and dissolved with DMSO, a certain volume of polyethylene glycol 400 and water for injection (WFI) were added, and then a small volume of 1 mol/L hydrochloric acid solution was added to adjust to a clear solution. […]
Single intravenous (IV) administration to ICR mice: The compound was weighed and dissolved with DMSO, a certain volume of polyethylene glycol 400 and water for injection (WFI) were added, and then a small volume of 1 mol/L hydrochloric acid solution was added to adjust to a clear solution. The administration via tail vein injection was conducted for a total of 3 mice after fasting overnight at a dose of 3 mg/kg.
Blood was collected from the dorsalis pedis vein at approximately 30 µL/time point, anticoagulated with dipotassium ethylenediaminetetraacetate and kept on ice until plasma was separated by centrifugation (4000 g/min; 5 min; 4°C) within 1 h. The blood sampling time points were 0.0833 (intravenous injection), 0.25, 0.5, 1, 2, 4, 6, 8, and 24 h. The samples were stored in a refrigerator at -20°C.
A total of 30 µL of plasma sample (10 µL sample + 20 µL blank plasma sample) was added with 200 µL ice-cold ACN containing internal standard, vortexed for 30 s, and centrifuged at 4000 g/min for 20 min. A total of 100 µL of the supernatant was transferred to a 96-well plate, 200 µL of ultrapure water was added, vortexed for 30 s, and 5 µL or 10 µL was injected into LC-MS/MS for analysis. Table 2: Pharmacokinetic Data

| Compound | IC50 (HCT-116 wild-type cells; Homo sapiens, HCT-116, 192 h) | IC50 ([1]; Homo sapiens, Lu-99, 144 h) | IC50 [4] | IC50 [5] | other results |
| --- | --- | --- | --- | --- | --- |
| CN(C(=O)c1ccc2nc(N)c3cncn3c2c1)C1COC2(CCC2)c2cc(N3CCOCC3)ncc21 (centres unmarked) [Example 6, 4-Amino-N-methyl-N-(7'-morpholinyl-3',4'-dihydrospiro[cyclobutane-1,1'-pyrano[4,3-c]pyridine]-4'-yl)imidazo[1,5-a]quinoxaline-8-carboxamide] | – | – | – | – | IC50 (HCT-116 wild-type cells): 10000 nM; IC50 [1]: 3880 nM; IC50 [2]: 110 nM; IC50 [3]: 88.5 nM |
| CN(C(=O)c1ccc2nc(N)c3cncn3c2c1)[C@@H]1COC2(CCC2)c2cc(N3C4COCC3C4)ncc21 [Example 48, N-((4'S)-7'-(3-oxa-6-azabicyclo[3.1.1]heptane-6-yl)-3',4'-dihydrospiro[cyclobutane-1,1'-pyrano[4,3-c]pyridine]-4'-yl)-4-amino-N-methylimidazo[1,5-a]quinoxaline-8-carboxamide] | > 20000 nM | 10600 nM | 150 nM | 144 nM | – |
| Cc1ncc2c(N)nc3cc(F)c(C(=O)N(C)C4COC5(CCCOC5)c5cc(C(F)(F)F)ccc54)cc3n12 (centres unmarked) [Example 51, 4-Amino-7-fluoro-N,1-dimethyl-N-(7-(trifluoromethyl)-5',6'-dihydro-2'H,4'H-pyran[isochroman-1,3'-pyran]-4-yl)imidazo[1,5-a]quinoxaline-8-carboxamide] | 1830 nM | 1320 nM | 14 nM | 8.02 nM | – |
| Cc1ncn2c1c(N)nc1cc(F)c(C(=O)N(C)C3COC4(CCCOC4)c4cc(C(F)(F)F)ccc43)cc12 (centres unmarked) [Example 52, 4-Amino-7-fluoro-N,3-dimethyl-N-(7-(trifluoromethyl)-5',6'-dihydro-2'H,4'H-pyran[isochroman-1,3'-pyran]-4-yl)imidazo[1,5-a]quinoxaline-8-carboxamide] | 602 nM | 539 nM | 14.9 nM | 8.06 nM | – |
| CN(C(=O)c1ccc2nc(N)c3cncn3c2c1)[C@H]1COC2(CC2)c2cc(C(F)(F)F)ccc21 [Example 53, (R)-4-amino-N-methyl-N-(7'-(trifluoromethyl)spiro[cyclopropane-1,1'-isochroman]-4'-yl)imidazo[1,5-a]quinoxaline-8-carboxamide] | 7590 nM | 1750 nM | 682 nM | 419 nM | – |
| CN(C(=O)c1ccc2nc(N)c3cncn3c2c1)[C@@H]1COC2(CC2)c2cc(C(F)(F)F)ccc21 [Example 54, (S)-4-amino-N-methyl-N-(7'-(trifluoromethyl)spiro[cyclopropane-1,1'-isochroman]-4'-yl)imidazo[1,5-a]quinoxaline-8-carboxamide] | 1040 nM | 1100 nM | 8.11 nM | 5.8 nM | bioavailability ([6]; PO(30mg/kg)): 86.5%; bioavailability ([6]; PO(100mg/kg)): 48.2%; AUC(0-t) ([6]; IV(3mg/kg)): 25.4 µg·h/mL; half-life ([6]; IV(3mg/kg)): 2.37 h; AUC(0-t) ([6]; PO(30mg/kg)): 220 µg·h/mL; half-life ([6]; PO(30mg/kg)): 1.47 h; AUC(0-t) ([6]; PO(100mg/kg)): 408 µg·h/mL; half-life ([6]; PO(100mg/kg)): 2.06 h |
| CN(C(=O)c1ccc2nc(N)c3cncn3c2c1)[C@@H]1COC(C)(C)c2cc(N3CCOCC3)ccc21 [Example 98, (S)-4-amine-N-(1,1-dimethyl-7-morpholinoisochroman-4-yl)-N-methylimidazo[1,5-a]quinoxaline-8-carboxamide] | > 10000 nM | 8100 nM | 57.5 nM | 47.9 nM | – |
| CN(C(=O)c1ccc2nc(N)c3cncn3c2c1)[C@@H]1COC2(CCOCC2)c2cc(C(F)(F)F)ccc21 [Example 100, (S)-4-amino-N-methyl-N-(7'-(trifluoromethyl)-2',3',5',6'-tetrahydrospiro[isochroman-1,4'-pyran]-4-yl)imidazo[1,5-a]quinoxaline-8-carboxamide] | 902 nM | 938 nM | 8.5 nM | 5.2 nM | – |
| CN(C(=O)c1ccc2nc(N)c3cncn3c2c1)[C@H]1COC2(CCOCC2)c2cc(C(F)(F)F)ccc21 [Example 101, (R)-4-amino-N-methyl-N-(7'-(trifluoromethyl)-2',3',5',6'-tetrahydrospiro[isochroman-1,4'-pyran]-4-yl)imidazo[1,5-a]quinoxaline-8-carboxamide] | 9490 nM | 5640 nM | > 1000 nM | 403 nM | – |
